Data published in US11571413B2, “Nicotinamide riboside treatments of domesticated meat animals” (Kansas State University Research Foundation, priority 2017, dated 2023).
Marks after values point to notes of the source that are not given here.

Tested on: growing pigs
Test: Longissimus lumborum NAD+ content (Example III)
Assay type: in vivo, pig
Protocol: Nine growing pigs were blocked by bodyweight (BW) and placed in metabolism crates. After a 3-day acclimation period, pigs within each BW block were randomly assigned to a treatment (n=3 pigs/treatment). Treatments comprised pigs supplemented 0, 15, or 30 mg/kg BW NR for 7 days. Pigs were allowed ad libitum access to a standard growing diet and water. Treatments were administered daily at 8 a.m. by mixing NR in 20 mL of Karo® dark syrup and orally drenching the pigs. On day 0 and 3 of the trial, muscle biopsies of the LL were taken for NAD+ analysis using standard procedures. At day 7, pigs were transported to the Kansas State University Meats Laboratory and euthanized by a captive penetrating bolt to the brain, followed by exsanguination. Following harvest procedures, 3 g of the LL were collected for NAD+ analysis. Twenty-four hours after harvest, the whole LL not sampled at harvest was removed from the carcass and aged 10 days. After aging, the LL was cut into 6 chops for retail color stability analysis, including 6-day surface oxy- and metmyoglobin percentage, 6-day objective and subjective color panel evaluation, and day 4 and 6 metmyoglobin reducing ability (MRA).

**Q.** What does the source list for NC(=O)c1ccc[n+]([C@@H]2O[C@H](CO)[C@@H](O)[C@H]2O)c1 [Nicotinamide riboside, nicotinamide riboside]?
**A.** Day 3 NAD+ change, percent change (15 mg/kg): 28.55^b,x Percent; Day 3 NAD+ change, total (15 mg/kg): 2.10^b pMol/g tissue; Day 7 NAD+ change, percent change (15 mg/kg): 35.29^b,x Percent; Day 7 NAD+ change, total (15 mg/kg): 2.72^b pMol/g tissue; NAD+ (15 mg/kg group, Day 0 (before supplementation)): 7.70 pMol/g tissue; NAD+ (15 mg/kg, Day 7): 10.42 pMol/g tissue; NAD+ (15 mg/kg, middle column group (Day 3, head not given)): 9.80 pMol/g tissue; Day 3 NAD+ change, percent change (30 mg/kg): 6.43^a,b,y Percent; Day 3 NAD+ change, total (30 mg/kg): 0.71^a,b,y pMol/g tissue; Day 7 NAD+ change, percent change (30 mg/kg): 10.92^a,b,y Percent; Day 7 NAD+ change, total (30 mg/kg): 0.93^a,b,y pMol/g tissue; NAD+ (30 mg/kg group, Day 0 (before supplementation)): 8.60 pMol/g tissue; NAD+ (30 mg/kg, Day 7): 9.53 pMol/g tissue; NAD+ (30 mg/kg, middle column group (Day 3, head not given)): 9.31 pMol/g tissue
